Patent publication US9920039B2, “1,2,4-Oxadiazol compounds active against gram-positive pathogens” (UNIVERSITÀ DEGLI STUDI DI MILANO—BICOCCA, priority 2013, dated 2018)
Values after ≈ are worked out from the molar mass of the structure shown. Where two headings read alike, the source gives them in different places.

Legend:
[1] = tested on: Staphylococcus aureus ATCC 29213; experiment: MIC by broth microdilution (CLSI); assay type: cell-based
From the text: (§1) Several well characterized for their antibiotic-susceptibility phenotype Staphylococcus aureus isolates were used for the determination of the in vitro antibacterial activity of the studied compounds. In particular, S. aureus ATCC 29213 reference standard strain and S. aureus M923 (collection strain) were used as MSSA strains. Among MRSA, S. aureus MU50 (ATCC 700699) reference standard strain and two collection strains (433 and F511) were used for susceptibility assays.
(§2) The in vitro antibacterial activity of the new agents was studied by determining their minimum inhibitory concentrations (MICs) by means of the broth microdilution method according to the Clinical and Laboratory Standards Institute (CLSI) guidelines.[16] Briefly, serial 2-fold dilutions of each compound were made using the Cation adjusted Mueller-Hinton broth (CAMHB) in microtitre plates with 96 wells. Dimethyl sulfoxide (DMSO) was used as solvent for all the synthesized compounds. An equal volume of the bacterial inoculum (1×10^6 CFU/mL) was added to each well on the microtitre plate containing 0.05 mL of the serial antibiotic dilutions. The microtitre plate was then incubated at 37° C. for 18-24 h after which each well was analysed for the presence of bacterial growth. The MIC was defined as the lowest concentration of antimicrobial agent able to cause inhibition of bacterial growth as shown by the lack of turbidity of the culture medium. […] Final DMSO concentrations were also taken into account in all the biological assays.
(§3) The antimicrobial activities, summarized in Table 2, were determined by the “gold standard” method of broth microdilution, as recommended by the Clinical Laboratory Standards Institute (CLSI) (See the Experimental Section). […] In detail, the bacterial strains were tested: Staphylococcus aureus ATCC 29213, a clinical strain of methicillin-susceptible S. aureus (M923), S. aureus MU50 (methicillin-resistant—MRSA), and two methicillin-resistant clinical strains, 433 and F511.
(§4) The antimicrobial activities, summarized in Table 3, were determined by the “gold standard” method of broth microdilution, as recommended by the Clinical Laboratory Standards Institute (CLSI) (See the Experimental Section). The minimum inhibitory concentration (MIC) values were expressed in μg/mL. […] In detail, the tested bacterial strains were: Staphylococcus aureus ATCC 29213, a clinical strain of methicillin-susceptible S. aureus (M923), S. aureus MU50 (methicillin-resistant—MRSA) strain, and two methicillin-resistant clinical strains, 433 and F511.

MRSA clinical strain 433 = experiment: MIC by broth microdilution (CLSI); assay type: cell-based, Staphylococcus aureus; details: MRSA 433
From the text: as §1, §2, §3, §4

[2] = tested on: MRSA clinical strain F511; experiment: MIC by broth microdilution (CLSI); assay type: cell-based, Staphylococcus aureus; details: Staphylococcus aureus
From the text: as §1, §2, §3, §4

[3] = tested on: S. aureus MU50 (ATCC 700699), methicillin-resistant (MRSA); experiment: MIC by broth microdilution (CLSI); assay type: cell-based, Staphylococcus aureus
From the text: as §1, §2, §3, §4

[4] = tested on: methicillin-susceptible S. aureus (M923); experiment: MIC by broth microdilution (CLSI); assay type: cell-based, Staphylococcus aureus; details: Staphylococcus aureus
From the text: as §1, §2, §3, §4

[5] = tested on: 6 ATCC (4MSSA, 2 MRSA)plus45 MRSA all LZD sensitive; experiment: MIC on strain panel (Table 4); assay type: cell-based, Staphylococcus aureus; details: 6 ATCC plus 45 MRSA; for MIC-range: tested range ≤0.06 - >128; for MIC50 / MIC90: Staphylococcus aureus; for MIC50: read-out: MIC50; for MIC90: read-out: MIC90
From the text: as §2

[6] = tested on: 12 MRSE all LZD sensitive; experiment: MIC on strain panel (Table 4); assay type: cell-based, Staphylococcus epidermidis; details: for MIC50 / MIC90: Staphylococcus epidermidis; for MIC50: read-out: MIC50; for MIC90: read-out: MIC90
From the text: as §2

ATCC E. faecalis 29212 = experiment: MIC by broth microdilution (Table 5); assay type: cell-based, Enterococcus faecalis
Description: Dimethyl sulfoxide (DMSO) was used as solvent for all the synthesized compounds. An equal volume of the bacterial inoculum (1×10^6 CFU/mL) was added to each well on the microtitre plate containing 0.05 mL of the serial antibiotic dilutions. The microtitre plate was then incubated at 37° C. for 18-24 h after which each well was analysed for the presence of bacterial growth. The MIC was defined as the lowest concentration of antimicrobial agent able to cause inhibition of bacterial growth as shown by the lack of turbidity of the culture medium. […] Final DMSO concentrations were also taken into account in all the biological assays.

[7] = tested on: Linezolid-resistant S. epidermidis Strains 1-10; experiment: MIC by broth microdilution (Table 5); assay type: cell-based, Staphylococcus epidermidis
From the text: as §2

[8] = tested on: Linezolid-resistant S. hominis Strain 11; experiment: MIC by broth microdilution (Table 5); assay type: cell-based, Staphylococcus hominis; details: S. hominis Strain 11, linezolid-resistant
From the text: as §2

[9] = tested on: 11 Linezolid-resistant CoNS; experiment: MIC summary on strain panel (Table 5); assay type: cell-based, Staphylococcus epidermidis, Staphylococcus hominis; details: 11 Linezolid-resistant CoNS
From the text: as §2

[10] = tested on: 45 Linezolid-susceptible MRSA; experiment: MIC summary on strain panel (Table 5); assay type: cell-based, Staphylococcus aureus
From the text: In particular, eleven linezolid-resistant coagulase-negative staphylococci (CoNS) (ten S. epidermidis and one S. hominis) were investigated. The eleven linezolid-resistant strains were isolated in several hospital settings between 2010 and 2011 from positive blood cultures. For the […], recently isolated from patients with cystic fibrosis, showing different profiles of multi-resistance to different classes of antimicrobials, was used (Table 4 and 5).
as §2

[11] = tested on: mitochondrial protein synthesis (OXPHOS complexes) in HepG2 cells; experiment: Oxidative phosphorylation (OXPHOS) assay; details: HepG2; linezolid 100 μg/mL, A4bS 10-100 μg/mL; vs non-treated cells; FIG. 6
From the text: This assay (Nadaciva S. et al., 2010) is used to monitor the level of mitochondrial protein synthesis of some key proteins in the process of oxidative phosphorylation of eukaryotic cells, comparing it with the level of synthesis of mitochondrial proteins encoded by nuclear DNA. This study allows us to analyze the effects of A4bS on the proteins encoded by mitochondrial DNA (mtDNA).
The data represent the mean±SEM of three separate experiments performed in triplicate. Statistical significance is obtained by the Student's test compared to the […].

[12] = Staphylococcus aureus, ATCC29213, ATCC 29213, racemic form, Table 3, read-out: MIC
[13] = Staphylococcus aureus, racemic form, Table 3, read-out: MIC
[14] = racemic form, Table 3, read-out: MIC
[15] = MSSA M923, racemic form, Table 3, read-out: MIC
[16] = Staphylococcus aureus, ATCC29213, ATCC 29213, racemic mixture, Table 2, read-out: MIC
[17] = Staphylococcus aureus, racemic mixture, Table 2, read-out: MIC
[18] = ATCC S. aureus 29213, resolved enantiomers, Table 5, read-out: MIC
[19] = S. epidermidis Strain 1, linezolid-resistant
[20] = S. epidermidis Strain 2, linezolid-resistant
[21] = S. epidermidis Strain 3, linezolid-resistant
[22] = S. epidermidis Strain 4, linezolid-resistant
[23] = S. epidermidis Strain 5, linezolid-resistant
[24] = S. epidermidis Strain 6, linezolid-resistant
[25] = S. epidermidis Strain 7, linezolid-resistant
[26] = S. epidermidis Strain 8, linezolid-resistant
[27] = S. epidermidis Strain 9, linezolid-resistant
[28] = S. epidermidis Strain 10, linezolid-resistant

Compound	MIC [1, 12] [µg/mL]	MIC (MRSA clinical strain 433; [13]) [µg/mL]	MIC [2, 14] [µg/mL]	MIC [3, 13] [µg/mL]	MIC [4, 15] [µg/mL]	melting point [°C]	MIC-range [5] [µg/mL]	MIC50 [5] [µg/mL]	MIC90 [5] [µg/mL]	MIC50 [6] [µg/mL]	MIC90 [6] [µg/mL]	MIC [1, 18] [µg/mL]	MIC (ATCC E. faecalis 29212) [µg/mL]	MIC [7, 19] [µg/mL]	MIC [7, 20] [µg/mL]	MIC [7, 21] [µg/mL]	MIC [7, 22] [µg/mL]	MIC [7, 23] [µg/mL]	MIC [7, 24] [µg/mL]	MIC [7, 25] [µg/mL]	also measured
Cc1noc(-c2ccc(N3CC(Cn4ccnn4)OC3=O)cc2F)n1 (racemic) [Compound B1b]	25 (≈ 72.6 µM)	6.25 (≈ 18.2 µM)	12.5 (≈ 36.3 µM)	1.6 (≈ 4.65 µM)	25 (≈ 72.6 µM)	176.2 to 177.8	–	–	–	–	–	–	–	–	–	–	–	–	–	–	–
CNC(=S)NCC1CN(c2ccc(-c3nc(C)no3)cc2)C(=O)O1 (racemic) [Compound B4a, 1-((3-(4-(3-methyl-1,2,4-oxadiazol-5-yl)phenyl)-oxazolidin-2-one-5-yl)methyl)-3-methylthiourea]	6.25 (≈ 18 µM)	3.12 (≈ 9 µM)	6.25 (≈ 18 µM)	1.6 (≈ 4.61 µM)	6.25 (≈ 18 µM)	189.4 to 191.8	1 to 16	8	16	64 (≈ 184 µM)	> 128	–	–	–	–	–	–	–	–	–	–
CNC(=S)NCC1CN(c2ccc(-c3nc(C)no3)c(F)c2)C(=O)O1 (racemic) [Compound B4b, 1-((3-(3-fluoro-4-(3-methyl-1,2,4-oxadiazol-5-yl)phenyl)-oxazolidin-2-one-5-yl)methyl)-3-methylthiourea]	6.25 (≈ 17.1 µM)	3.12 (≈ 8.55 µM)	6.25 (≈ 17.1 µM)	1.6 (≈ 4.38 µM)	6.25 (≈ 17.1 µM)	170.7 to 172.4	0.5 to 16	4	16	64 (≈ 175 µM)	128 (≈ 350 µM)	–	–	–	–	–	–	–	–	–	–
CC(=O)NCC1CN(c2ccc(-c3nc(C)no3)cc2)C(=O)O1 (stereo not shown) [Compound A3a, 3-(4′-(3″-methyl-1,2,4-oxadiazol-5-yl)-phenyl)-5-(N-acetylaminomethyl)-oxazolidin-2-one]	–	–	–	–	–	214 to 216	–	–	–	–	–	–	–	–	–	–	–	–	–	–	MIC [1, 16]: 12.5 µg/mL (≈ 39.5 µM); MIC (MRSA clinical strain 433; [17]): 1.6 µg/mL (≈ 5.06 µM); MIC ([2]; racemic mixture, Table 2, read-out: MIC): 12.5 µg/mL (≈ 39.5 µM); MIC [3, 17]: 6.25 µg/mL (≈ 19.8 µM); MIC ([4]; MSSA M923, racemic mixture, Table 2, read-out: MIC): 6.25 µg/mL (≈ 19.8 µM)
CC(=S)NC[C@@H]1CN(c2ccc(-c3nc(C)no3)cc2)C(=O)O1 [Compound A4aR]	–	–	–	–	–	–	–	–	–	–	–	128 (≈ 385 µM)	> 128	> 128	> 128	> 128	> 128	> 128	> 128	> 128	MIC [7, 26]: > 128 µg/mL; MIC [7, 27]: > 128 µg/mL; MIC [7, 28]: > 128 µg/mL; MIC [8]: > 128 µg/mL; MIC50 [9]: > 128 µg/mL; MIC90 [9]: > 128 µg/mL; MIC-range [9]: > 128 µg/mL; MIC50 [10]: > 128 µg/mL
CC(=S)NC[C@H]1CN(c2ccc(-c3nc(C)no3)cc2)C(=O)O1 [Compound A4aS]	–	–	–	–	–	–	–	–	–	–	–	8 (≈ 24.1 µM)	4 (≈ 12 µM)	8 (≈ 24.1 µM)	32 (≈ 96.3 µM)	4 (≈ 12 µM)	32 (≈ 96.3 µM)	4 (≈ 12 µM)	4 (≈ 12 µM)	32 (≈ 96.3 µM)	MIC [7, 26]: 32 µg/mL (≈ 96.3 µM); MIC [7, 27]: 1 µg/mL (≈ 3.01 µM); MIC [7, 28]: 8 µg/mL (≈ 24.1 µM); MIC [8]: 8 µg/mL (≈ 24.1 µM); MIC50 [9]: 8 µg/mL (≈ 24.1 µM); MIC90 [9]: 32 µg/mL (≈ 96.3 µM); MIC50 [10]: 2 µg/mL (≈ 6.02 µM)
CC(=S)NC[C@@H]1CN(c2ccc(-c3nc(C)no3)c(F)c2)C(=O)O1 [Compound A4bR]	–	–	–	–	–	–	–	–	–	–	–	64 (≈ 183 µM)	32 (≈ 91.3 µM)	128 (≈ 365 µM)	> 128	> 128	128 (≈ 365 µM)	128 (≈ 365 µM)	64 (≈ 183 µM)	> 128	MIC [7, 26]: 128 µg/mL (≈ 365 µM); MIC [7, 27]: > 128 µg/mL; MIC [7, 28]: 128 µg/mL (≈ 365 µM); MIC [8]: 128 µg/mL (≈ 365 µM); MIC50 [9]: 128 µg/mL (≈ 365 µM); MIC90 [9]: 128 µg/mL (≈ 365 µM); MIC50 [10]: 128 µg/mL (≈ 365 µM)
CC(=O)NC[C@H]1CN(c2ccc(N3CCOCC3)c(F)c2)C(=O)O1 [Linezolid, reference compound]	–	–	3.12 (≈ 9.26 µM)	–	3.12 (≈ 9.26 µM)	–	0.25 to 16	2	4	32 (≈ 94.9 µM)	64 (≈ 190 µM)	–	–	–	–	–	–	–	–	–	MIC ([1]; ATCC 29213, racemic form, Table 3): ≤0.4 µg/mL; MIC [1, 16]: ≤ 0.4 µg/mL; MIC (MRSA clinical strain 433; racemic form, Table 3): 1.6 µg/mL (≈ 4.74 µM); MIC (MRSA clinical strain 433; [17]): 1.6 µg/mL (≈ 4.74 µM); MIC ([2]; MRSA, racemic mixture, Table 2): 3.13 µg/mL (≈ 9.28 µM); MIC [3, 17]: 0.8 µg/mL (≈ 2.37 µM); MIC ([3]; racemic form, Table 3): 0.8 µg/mL (≈ 2.37 µM); MIC ([4]; MSSA, racemic mixture, Table 2): 3.13 µg/mL (≈ 9.28 µM); MIC range [6]: 32 to 64 µg/mL; effect on proteins synthesized by mtDNA (in words) [11]: significant decrease
